By Ki is commonly meant the equilibrium dissociation constant of an inhibitor or competing ligand from its target.

A short description of experiment [1]: Displacement of [3H]EK from Opioid receptor delta 1 in guinea pig brain membrane.
Experiment [2] is described as follows: Compound was tested for binding affinity against delta opioid receptor in guinea pig brain membrane using [3H]EK as the radioligand.

In the case of `O=C(CCC(=O)N[C@@H]1CC[C@@]2(O)[C@H]3Cc4ccc(O)c5c4[C@@]2(CCN3CC2CC2)[C@H]1O5)N[C@@H]1CC[C@@]2(O)[C@H]3Cc4ccc(O)c5c4[C@@]2(CCN3CC2CC2)[C@H]1O5` [1N,4N-di[4-cyclopropylmethyl-10,17-dihydroxy-(13R,14R,17S)-12-oxa-4-azapentacyclo[9.6.1.01,13.05,17.07,18]octadeca-7(18),8,10-trien-14-yl]succinamide], the inhibitory constant (Ki) in experiment [1] turned out to be 12 nM. Molecule `O=C(CCC(=O)NCC(=O)N[C@@H]1CC[C@@]2(O)[C@H]3Cc4ccc(O)c5c4[C@@]2(CCN3CC2CC2)[C@H]1O5)NCC(=O)N[C@@H]1CC[C@@]2(O)[C@H]3Cc4ccc(O)c5c4[C@@]2(CCN3CC2CC2)[C@H]1O5` [1N,4N-di[4-cyclopropylmethyl-10,17-dihydroxy-(13R,14R,17S)-12-oxa-4-azapentacyclo[9.6.1.01,13.05,17.07,18]octadeca-7(18),8,10-trien-14-ylcarbamoylmethyl]succinamide] registered a Ki in experiment [1] of 7.8 nM. `O=C(CCC(=O)NCC(=O)NCC(=O)N[C@@H]1CC[C@@]2(O)[C@H]3Cc4ccc(O)c5c4[C@@]2(CCN3CC2CC2)[C@H]1O5)NCC(=O)NCC(=O)N[C@@H]1CC[C@@]2(O)[C@H]3Cc4ccc(O)c5c4[C@@]2(CCN3CC2CC2)[C@H]1O5` [1N,4N-di[4-cyclopropylmethyl-10,17-dihydroxy-(13R,14R,17S)-12-oxa-4-azapentacyclo[9.6.1.01,13.05,17.07,18]octadeca-7(18),8,10-trien-14-ylcarbamoylmethylcarbamoylmethyl]succinamide] came in with a Ki in experiment [1] of 4.9 nM. Regarding `O=C(CCC(=O)NCC(=O)NCC(=O)NCC(=O)N[C@@H]1CC[C@@]2(O)[C@H]3Cc4ccc(O)c5c4[C@@]2(CCN3CC2CC2)[C@H]1O5)NCC(=O)NCC(=O)NCC(=O)N[C@@H]1CC[C@@]2(O)[C@H]3Cc4ccc(O)c5c4[C@@]2(CCN3CC2CC2)[C@H]1O5` [1N,4N-di[4-cyclopropylmethyl-10,17-dihydroxy-(13R,14R,17S)-12-oxa-4-azapentacyclo[9.6.1.01,13.05,17.07,18]octadeca-7(18),8,10-trien-14-ylcarbamoylmethylcarbamoylmethylcarbamoylmethyl]succinamide], the affinity in experiment [1] corresponds to a Ki of 6.4 nM. `CN1CC[C@]23c4c5ccc(O)c4O[C@@H]2[C@H](NC(=O)CCC(=O)N[C@@H]2CC[C@]4(O)[C@H]6Cc7ccc(O)c8c7[C@@]4(CCN6C)[C@@H]2O8)CC[C@]3(O)[C@H]1C5` [1N,4N-di[10,17-dihydroxy-4-methyl-(13R,14S,17S)-12-oxa-4-azapentacyclo[9.6.1.01,13.05,17.07,18]octadeca-7(18),8,10-trien-14-yl]succinamide] returned a Ki in experiment [1] of 200 nM. This Ki is about 31-fold higher than that of the molecule before. `CN1CC[C@]23c4c5ccc(O)c4O[C@@H]2[C@H](NC(=O)CNC(=O)CCC(=O)NCC(=O)N[C@@H]2CC[C@]4(O)[C@H]6Cc7ccc(O)c8c7[C@@]4(CCN6C)[C@@H]2O8)CC[C@]3(O)[C@H]1C5` [1N,4N-di[10,17-dihydroxy-4-methyl-(13R,14S,17S)-12-oxa-4-azapentacyclo[9.6.1.01,13.05,17.07,18]octadeca-7(18),8,10-trien-14-ylcarbamoylmethyl]succinamide] had a Ki in experiment [1] of 86 nM. Still for that read-out and setting: as for `CN1CC[C@]23c4c5ccc(O)c4O[C@@H]2[C@H](NC(=O)CNC(=O)CNC(=O)CNC(=O)CCC(=O)NCC(=O)NCC(=O)NCC(=O)N[C@@H]2CC[C@]4(O)[C@H]6Cc7ccc(O)c8c7[C@@]4(CCN6C)[C@@H]2O8)CC[C@]3(O)[C@H]1C5` [1N,4N-di[10,17-dihydroxy-4-methyl-(13R,14S,17S)-12-oxa-4-azapentacyclo[9.6.1.01,13.05,17.07,18]octadeca-7(18),8,10-trien-14-ylcarbamoylmethylcarbamoylmethyl]succinamide], the figure is 42 nM; as for `CN1CC[C@]23c4c5ccc(O)c4O[C@H]2[C@@H](NC(=O)CNC(=O)CNC(=O)CCC(=O)NCC(=O)NCC(=O)N[C@H]2CC[C@@]4(O)[C@H]6Cc7ccc(O)c8c7[C@@]4(CCN6C)[C@H]2O8)CC[C@@]3(O)[C@H]1C5` [1N,4N-di[10,17-dihydroxy-4-methyl-(13R,14S,17S)-12-oxa-4-azapentacyclo[9.6.1.01,13.05,17.07,18]octadeca-7(18),8,10-trien-14-ylcarbamoylmethylcarbamoylmethylcarbamoylmethyl]succinamide], 50 nM. As to `CN1CC[C@]23c4c5ccc(O)c4O[C@@H]2[C@H](NC(=O)CNC(=O)CNC(=O)CCC(=O)NCC(=O)NCC(=O)N[C@@H]2CC[C@]4(O)[C@H]6Cc7ccc(O)c8c7[C@@]4(CCN6C)[C@@H]2O8)CC[C@]3(O)[C@H]1C5` [1N,4N-di[10,17-dihydroxy-4-methyl-(13S,14R,17R)-12-oxa-4-azapentacyclo[9.6.1.01,13.05,17.07,18]octadeca-7(18),8,10-trien-14-ylcarbamoylmethylcarbamoylmethyl]succinamide], affinity in experiment [2] was put at a Ki of 27 nM.
